Several values for one entry are separate records, joined by “and”; a condition that tells them apart may be missing. Equal values may be shown once. Inconclusive results and toxic doses are left out.
Tested on: BDF1 mice, B16 melanoma ip, median survival T/C
Experiment: NCI In Vivo Anticancer Drug Screen. Data for tumor model B16 Melanoma (intraperitoneal) in B6D2F1 (BDF1) mice
Conditions: endpoint: median survival time, higher = longer survival
Summary of the method: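 Survival or tumor size is measured after treatment of tumor-bearing mice and normalised to the vehicle-treated control group.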

[1] = dose: 100.0 mg/kg/injection, schedule: Q04DX003 (ip), vehicle: Klucel (hydroxypropylcellulose) (HPC)
[2] = dose: 200.0 mg/kg/injection, schedule: Q04DX003 (ip), vehicle: Klucel (hydroxypropylcellulose) (HPC)
[3] = dose: 400.0 mg/kg/injection, schedule: Q04DX003 (ip), vehicle: Klucel (hydroxypropylcellulose) (HPC)
[4] = dose: 25.0 mg/kg/injection, schedule: Q01DX009 (ip), vehicle: Klucel (hydroxypropylcellulose) (HPC)
[5] = dose: 50.0 mg/kg/injection, schedule: Q01DX009 (ip), vehicle: Klucel (hydroxypropylcellulose) (HPC)
[6] = dose: 100.0 mg/kg/injection, schedule: Q01DX009 (ip), vehicle: Klucel (hydroxypropylcellulose) (HPC)
[7] = dose: 200.0 mg/kg/injection, schedule: Q01DX009 (ip), vehicle: Klucel (hydroxypropylcellulose) (HPC)
[8] = dose: 12.5 mg/kg/injection, schedule: Q01DX009 (ip), vehicle: Klucel (hydroxypropylcellulose) (HPC)
[9] = dose: 6.25 mg/kg/injection, schedule: Q01DX009 (ip), vehicle: saline
[10] = dose: 12.5 mg/kg/injection, schedule: Q01DX009 (ip), vehicle: saline
[11] = dose: 25.0 mg/kg/injection, schedule: Q01DX009 (ip), vehicle: saline
[12] = dose: 25.0 mg/kg/injection, schedule: Q01DX009 (ip), vehicle: saline with Tween-80
[13] = dose: 50.0 mg/kg/injection, schedule: Q01DX009 (ip), vehicle: saline with Tween-80
[14] = dose: 50.0 mg/kg/injection, schedule: Q01DX009 (ip), vehicle: other
[15] = dose: 1.25 mg/kg/injection, schedule: Q01DX009 (ip), vehicle: saline
[16] = dose: 2.5 mg/kg/injection, schedule: Q01DX009 (ip), vehicle: saline

In the case of `CC1(C)N=C(N)N=C(N)N1c1ccc(OCc2ccc(C(=O)Nc3cccc(S(=O)(=O)F)c3)cc2)c(Cl)c1`, the T/C (dose: 12.5 mg/kg/injection, schedule: Q04DX003 (ip), vehicle: saline with Tween-80) is reported as 119 % of control and the T/C (dose: 50.0 mg/kg/injection, schedule: Q04DX003 (ip), vehicle: saline) is reported as 166 % of control.
With `C[Si](C)(C)c1c(F)c(F)cc(F)c1F` the T/C [1] was 98 % of control, the T/C [2] was 97 % of control and the T/C [3] was 97 % of control.
`CNC(=S)NCc1ccc(C(=O)NC(C)C)cc1` was tested, and the T/C [4] was 101 % of control, the T/C [5] was 99 % of control and the T/C [6] was 118 % of control. The T/C [7] was 118 % of control.
In the case of `COC(=O)c1cc([N+](=O)[O-])cc2ccccc12`, the T/C [5] is reported as 100 % of control, the T/C [6] is reported as 97 % of control and the T/C [7] is reported as 94 % of control.
`C/C(=C\c1ccccc1)C(=O)c1ccc(-c2ccccc2)cc1` was tested, and the T/C [1] was 103 % of control, the T/C [2] was 95 % of control and the T/C [3] was 106 % of control.
For `CCCCCCC/C=C/C(=O)OC1C(OC2C(OC(CCCCCCC)CC(=O)OC(CCCCCCC)CC(=O)O)OC(C)C(O)C2O)OC(C)C(O)C1O` (centres undefined), the T/C [8] was 90 % of control, the T/C [4] was 104 % of control and the T/C [5] was 92 % of control.
For `N#CC1CCCC[N-]1.[NH-]CC[N-]CC[NH-].[Pt+4]` (centres undefined), the T/C [9] was 113 % of control, the T/C [10] was 108 % of control and the T/C [11] was 91 % of control.
`CNC(=O)OCc1c(COC(=O)NC)c(-c2ccccc2)n(C)c1-c1ccccc1` was tested, and the T/C (dose: 3.12 mg/kg/injection, schedule: Q01DX009 (ip), vehicle: distilled water + Tween-80) was 161 % of control, the T/C (dose: 6.25 mg/kg/injection, schedule: Q01DX009 (ip), vehicle: distilled water + Tween-80) was 159 % of control and the T/C (dose: 12.5 mg/kg/injection, schedule: Q01DX009 (ip), vehicle: distilled water + Tween-80) was 166 % of control. For the same compound, the T/C (dose: 25.0 mg/kg/injection, schedule: Q01DX009 (ip), vehicle: distilled water + Tween-80) was 206 % of control.
For `C/C(=C\c1ccc(C)cc1)[N+](=O)[O-]`, the T/C [12] was 89 % of control and the T/C [13] was 96 % of control.
With `CCCCCCCCCCCC(=O)NC1CC(O[C@H]2C[C@](O)(C(=O)CO)Cc3c(O)c4c(c(O)c32)C(=O)c2c(OC)cccc2C4=O)OC(C)C1O` (some centres undefined) the T/C (dose: 12.5 mg/kg/injection, schedule: Q01DX001 (ip), vehicle: distilled water + Tween-80) was 119 % of control, the T/C (dose: 12.5 mg/kg/injection, schedule: Q01DX001 (ip), vehicle: water) was 195 % of control and the T/C (dose: 25.0 mg/kg/injection, schedule: Q01DX001 (ip), vehicle: distilled water + Tween-80) was 189 % of control. For the same compound, the T/C (dose: 25.0 mg/kg/injection, schedule: Q01DX001 (ip), vehicle: water) was 233 % of control, the T/C (dose: 50.0 mg/kg/injection, schedule: Q01DX001 (ip), vehicle: distilled water + Tween-80) was 195 % of control and the T/C (dose: 50.0 mg/kg/injection, schedule: Q01DX001 (ip), vehicle: water) was 257 % of control. For the same compound, the T/C (dose: 100.0 mg/kg/injection, schedule: Q01DX001 (ip), vehicle: distilled water + Tween-80) was 258 % of control, the T/C (dose: 100.0 mg/kg/injection, schedule: Q01DX001 (ip), vehicle: water) was 325 % of control and the T/C (dose: 200.0 mg/kg/injection, schedule: Q01DX001 (ip), vehicle: distilled water + Tween-80) was 215 % of control. The T/C (dose: 200.0 mg/kg/injection, schedule: Q01DX001 (ip), vehicle: water) was 104 % of control, the T/C (dose: 400.0 mg/kg/injection, schedule: Q01DX001 (ip), vehicle: distilled water + Tween-80) was 231 % of control and the T/C (dose: 400.0 mg/kg/injection, schedule: Q01DX001 (ip), vehicle: water) was 102 % of control.
In the case of `COC(=O)C(CSCc1ccccc1)NC(=O)CCNC(=O)OCc1ccccc1` (centres undefined), the T/C (dose: 25.0 mg/kg/injection, schedule: Q01DX009 (ip), vehicle: other) is reported as 107 % of control, the T/C [14] is reported as 92 % of control and the T/C (dose: 100.0 mg/kg/injection, schedule: Q01DX009 (ip), vehicle: other) is reported as 97 % of control. For the same compound, the T/C (dose: 200.0 mg/kg/injection, schedule: Q01DX009 (ip), vehicle: other) was 93 % of control.
For `OCCNCCN1CCN(CCCN2c3ccccc3Sc3ccc(C(F)(F)F)cc32)CC1`, the T/C (dose: 3.12 mg/kg/injection, schedule: Q01DX009 (ip), vehicle: saline) was 108 % of control, the T/C [9] was 102 % of control and the T/C [10] was 100 % of control. The T/C [11] was 92 % of control.
For `O=c1cc(CCl)[nH]nc1CCl`, the T/C (dose: 1.5 mg/kg/injection, schedule: Q01DX009 (ip), vehicle: saline with Tween-80) was 107 % of control, the T/C (dose: 3.0 mg/kg/injection, schedule: Q01DX009 (ip), vehicle: saline with Tween-80) was 116 % of control and the T/C (dose: 3.12 mg/kg/injection, schedule: Q01DX009 (ip), vehicle: saline with Tween-80) was 123 % of control. The T/C (dose: 12.5 mg/kg/injection, schedule: Q01DX009 (ip), vehicle: saline with Tween-80) was 124 % of control.
With `C=CCN(CC=C)P(=O)(N1CC1C)N1CC1C` (centres undefined) the T/C (dose: 0.31 mg/kg/injection, schedule: Q01DX009 (ip), vehicle: saline) was 109 % of control, the T/C (dose: 0.63 mg/kg/injection, schedule: Q01DX009 (ip), vehicle: saline) was 112 % of control and the T/C [15] was 122 % of control. The T/C [16] was 99 % of control.
In the case of `C=CCN(CC=C)C(=O)CCN1CC1`, the T/C [15] is reported as 100 % of control, the T/C (dose: 1.25 mg/kg/injection, schedule: Q04DX003 (ip), vehicle: saline) is reported as 102 % of control and the T/C [16] is reported as 100 % of control. For the same compound, the T/C (dose: 2.5 mg/kg/injection, schedule: Q04DX003 (ip), vehicle: saline) was 100 % of control, the T/C (dose: 5.0 mg/kg/injection, schedule: Q01DX009 (ip), vehicle: saline) was 100 % of control and the T/C (dose: 5.0 mg/kg/injection, schedule: Q04DX003 (ip), vehicle: saline) was 105 % of control.
For `O=C(O)/C=C/C(=O)Nc1ccccc1`, the T/C [1] was 106 % of control, the T/C [2] was 96 % of control and the T/C [3] was 103 % of control.
For `Nc1nc(Cl)c2[nH]cnc2n1`, the T/C (dose: 0.09 mg/kg/injection, schedule: Q01DX009 (ip), vehicle: other) was 114 % of control, the T/C (dose: 0.19 mg/kg/injection, schedule: Q01DX009 (ip), vehicle: other) was 113 % of control and the T/C (dose: 0.38 mg/kg/injection, schedule: Q01DX009 (ip), vehicle: other) was 105 % of control. For the same compound, the T/C (dose: 0.75 mg/kg/injection, schedule: Q01DX009 (ip), vehicle: other) was 88 % of control and 111 % of control, the T/C (dose: 1.5 mg/kg/injection, schedule: Q01DX009 (ip), vehicle: other) was 110 % of control and the T/C (dose: 3.0 mg/kg/injection, schedule: Q01DX009 (ip), vehicle: other) was 101 % of control and 108 % of control. For the same compound, the T/C (dose: 6.0 mg/kg/injection, schedule: Q01DX009 (ip), vehicle: other) was 89 % of control and the T/C [14] was 93 % of control.
With `CC1Cc2c(Cl)cc(C(=O)NC(Cc3ccccc3)C(=O)O)c(O)c2C(=O)O1` (centres undefined) the T/C (dose: 0.12 mg/kg/injection, schedule: Q01DX009 (ip), vehicle: saline with Tween-80) was 112 % of control, the T/C (dose: 0.25 mg/kg/injection, schedule: Q01DX009 (ip), vehicle: saline with Tween-80) was 119 % of control and the T/C (dose: 0.5 mg/kg/injection, schedule: Q01DX009 (ip), vehicle: saline with Tween-80) was 114 % of control.
`CC(=O)N(C(C)=O)c1ccc(N=Nc2ccccc2C)cc1C` was tested, and the T/C [8] was 94 % of control, the T/C [4] was 117 % of control and the T/C [5] was 100 % of control. The T/C [6] was 100 % of control and the T/C [7] was 87 % of control.
With `Cc1cc2ncn(CC(=O)O)c2cc1C` the T/C [12] was 95 % of control, the T/C [13] was 97 % of control and the T/C (dose: 100.0 mg/kg/injection, schedule: Q01DX009 (ip), vehicle: saline with Tween-80) was 97 % of control.
For `O=C(O)CCC(=O)O`, the T/C (dose: 10.0 mg/kg/injection, schedule: Q01DX009 (ip), vehicle: water) was 101 % of control [middle of 4 runs], the T/C (dose: 20.0 mg/kg/injection, schedule: Q01DX009 (ip), vehicle: water) was 102 % of control [middle of 4 runs] and the T/C (dose: 40.0 mg/kg/injection, schedule: Q01DX009 (ip), vehicle: water) was 101 % of control and 119 % of control and 98 % of control. The T/C (dose: 80.0 mg/kg/injection, schedule: Q01DX009 (ip), vehicle: water) was 93 % of control and 100 % of control and 104 % of control, the T/C (dose: 160.0 mg/kg/injection, schedule: Q01DX009 (ip), vehicle: water) was 88 % of control and 94 % of control and 114 % of control and the T/C (dose: 320.0 mg/kg/injection, schedule: Q01DX009 (ip), vehicle: water) was 106 % of control.

— PubChem BioAssay AID192 (DTP/NCI, 2004)
